Values of other authors, collected in patent US5380533A, “Gastroresistant pharmaceutical formulations for oral administration containing bile acids” (Alfa Wassermann S.p.A., priority 1991, dated 1995).
In brackets after ≈: the same amount, converted by molar mass.

What was measured:
[1] = free bile acid
[2] = pH units
[3] = intestinal pH below 8.4; intestinal bacterial flora
[4] = after having crossed unabsorbed and undissolved the stomach

## C[C@H](CCC(=O)O)[C@H]1CC[C@H]2[C@@H]3[C@@H](O)C[C@@H]4C[C@H](O)CC[C@]4(C)[C@H]3CC[C@]12C [ursodeoxycholic acid]
[1]
  water solubility: 53 µM (≈ 20.8 µg/mL)
[2]
  pH at which complete solubilization takes place: 8.47
[3]
  fate of a portion at lower values of intestinal pH: is not absorbed and undergoes a biotransformation to lithocholic acid
[4]
  dissolution in the intestine: dissolve very slowly in the intestine
